Laboratory results: patent US9676714B2, “Sulfonylindole derivatives and method for preparing the same” (Daewoong Pharmaceutical Co., Ltd., priority 2013, dated 2017)
Where a name gives a salt, the structure may show the parent alone.

The compounds below were run against T1, proton pump (H+/K+-ATPase) (Sus scrofa, UniProt P19156) (assay: Measurement of inhibitory effects on proton pump (H+/K+-ATPase) activities). Conditions: hog gastric vesicles, K+-specific H+/K+-ATPase activity, Tris-HCl buffer pH 7.4, 37° C. for 40 minutes, malachite green Pi readout.
T1 construct: Gastric vesicles were prepared from hog stomach via centrifugal separation; from tissue; host or cells: hog stomach (gastric vesicles, method of Rabon et al. 1988)
Format: biochemical
In short: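 Hog gastric vesicles in 60 mmol/l Tris-HCl pH 7.4 with 0.5% DMSO were treated with compounds at room temperature; reaction was started with 10 μl of 10 mmol/l ATP stock. Released Pi was read at 570 nm, K+-specific activity taken as the ±K+ difference. IC50 from 4-parameter logistic fit.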

T1 sequence (P19156 whole entry): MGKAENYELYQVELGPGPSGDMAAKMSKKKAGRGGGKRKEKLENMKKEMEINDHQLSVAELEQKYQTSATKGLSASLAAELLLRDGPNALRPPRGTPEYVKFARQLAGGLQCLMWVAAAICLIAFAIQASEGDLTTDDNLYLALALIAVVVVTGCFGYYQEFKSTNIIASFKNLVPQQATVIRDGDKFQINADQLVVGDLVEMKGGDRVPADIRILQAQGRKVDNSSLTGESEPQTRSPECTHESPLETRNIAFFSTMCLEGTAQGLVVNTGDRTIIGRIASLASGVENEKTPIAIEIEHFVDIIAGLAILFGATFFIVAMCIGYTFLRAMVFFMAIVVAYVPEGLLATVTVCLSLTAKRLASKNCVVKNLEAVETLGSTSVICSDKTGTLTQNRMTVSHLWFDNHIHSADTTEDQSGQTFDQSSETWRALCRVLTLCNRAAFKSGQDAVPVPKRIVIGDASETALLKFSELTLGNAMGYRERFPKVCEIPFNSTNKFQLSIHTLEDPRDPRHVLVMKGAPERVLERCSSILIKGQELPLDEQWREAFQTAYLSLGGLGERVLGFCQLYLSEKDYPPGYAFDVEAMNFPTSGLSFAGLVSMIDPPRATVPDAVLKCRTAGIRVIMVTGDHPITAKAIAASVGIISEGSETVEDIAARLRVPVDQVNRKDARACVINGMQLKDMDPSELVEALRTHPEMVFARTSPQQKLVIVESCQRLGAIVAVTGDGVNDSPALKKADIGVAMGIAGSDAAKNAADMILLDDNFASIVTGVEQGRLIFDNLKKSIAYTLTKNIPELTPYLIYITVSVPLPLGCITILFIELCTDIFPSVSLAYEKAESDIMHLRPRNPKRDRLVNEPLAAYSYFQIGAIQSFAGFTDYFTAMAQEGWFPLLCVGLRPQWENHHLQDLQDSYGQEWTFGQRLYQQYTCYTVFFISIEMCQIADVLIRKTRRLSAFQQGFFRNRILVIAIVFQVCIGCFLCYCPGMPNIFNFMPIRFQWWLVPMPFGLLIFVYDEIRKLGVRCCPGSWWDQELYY
T1 sequence (P18434 whole entry partner): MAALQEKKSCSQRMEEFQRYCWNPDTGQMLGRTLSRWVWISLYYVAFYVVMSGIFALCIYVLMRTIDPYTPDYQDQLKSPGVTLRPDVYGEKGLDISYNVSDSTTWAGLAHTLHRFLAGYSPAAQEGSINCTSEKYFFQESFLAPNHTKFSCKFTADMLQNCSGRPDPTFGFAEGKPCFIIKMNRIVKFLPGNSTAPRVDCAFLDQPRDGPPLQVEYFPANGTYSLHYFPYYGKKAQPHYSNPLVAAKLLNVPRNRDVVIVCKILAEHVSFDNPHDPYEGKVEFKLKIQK

In order of falling IC50:
1. CNCc1cn(S(=O)(=O)c2cccc(OC)c2)c2cc(Nc3ccc(Cl)cc3F)ccc12 [Example 164, N-(4-chloro-2-fluorophenyl)-1-((3-methoxyphenyl)sulfonyl)-3-((methylamino)methyl)-1H-indol-6-amine hydrochloride]  7060 nM
2. CNCc1cn(S(=O)(=O)c2cccnc2)c2cc(Nc3ccc4ncccc4c3)ccc12 [Example 135, N-3-((methylamino)methyl)-1-(pyridin-3-ylsulfonyl)-1H-indol-6-yl)quinolin-6-amine hydrochloride]  3000 nM
3. CNCc1cn(S(=O)(=O)c2cccc(OC)c2)c2cc(Nc3ccc(C)nc3Cl)ccc12 [Example 172, N-(2-chloro-6-methylpyridin-3-yl)-1-((3-methoxyphenyl)sulfonyl)-3-((methylamino)methyl)-1H-indol-6-amine hydrochloride]  1500 nM
4. CNCc1cn(S(=O)(=O)c2cccc(OC)c2)c2cc(Nc3ccc(OC)nc3Cl)ccc12 [Example 173, N-(2-chloro-6-methoxypyridin-3-yl)-1-((3-methoxyphenyl)sulfonyl)-3-((methylamino)methyl)-1H-indol-6-amine hydrochloride]  1190 nM
5. CNCc1cn(S(=O)(=O)c2cccc(OC)c2)c2cc(Nc3ccc(OC(F)(F)F)cc3C)ccc12 [Example 168, 1-((3-methoxyphenyl)sulfonyl)-N-(2-methyl-4-(trifluoromethoxy)phenyl)-3-((methylamino)methyl)-1H-indol-6-amine hydrochloride]  790 nM
6. CNCc1cn(S(=O)(=O)c2cccc(F)c2)c2cc(Nc3ccc(C)cc3F)ccc12 [Example 136, N-(2-fluoro-4-methylphenyl)-1-((3-fluorophenyl)sulfonyl)-3-((methylamino)methyl)-1H-indol-6-amine hydrochloride]  710 nM
7. CNCc1cn(S(=O)(=O)c2cccc(OC)c2)c2cc(Nc3ccc(C)nc3F)ccc12 [Example 171, N-(2-fluoro-6-methylpyridin-3-yl)-1-((3-methoxyphenyl)sulfonyl)-3-((methylamino)methyl)-1H-indol-6-amine hydrochloride]  630 nM
8. CNCc1cn(S(=O)(=O)c2cccc(OC)c2)c2cc(Nc3ccc(OC)cc3F)ccc12 [Example 167, N-(2-fluoro-4-methoxyphenyl)-1-((3-methoxyphenyl)sulfonyl)-3-((methylamino)methyl)-1H-indol-6-amine hydrochloride]  610 nM
9. CNCc1cn(S(=O)(=O)c2cccc(Cl)c2)c2cc(Nc3ccc(Cl)cc3F)ccc12 [Example 150, N-(4-chloro-2-fluorophenyl)-1-((3-chlorophenyl)sulfonyl)-3-((methylamino)methyl)-1H-indol-6-amine hydrochloride]  570 nM
10. CNCc1cn(S(=O)(=O)c2cccc(Cl)c2)c2cc(Nc3ccc(Cl)cc3C(F)(F)F)ccc12 [Example 151, N-(4-chloro-2-(trifluoromethyl)phenyl)-1-((3-chlorophenyl)sulfonyl)-3-((methylamino)methyl)-1H-indol-6-amine hydrochloride]  510 nM
11. CNCc1cn(S(=O)(=O)c2cccc(Cl)c2)c2cc(Nc3ccc(OC(F)(F)F)cc3C)ccc12 [Example 154, 1-((3-chlorophenyl)sulfonyl)-N-(2-methyl-4-(trifluoromethoxy)phenyl)-3-((methylamino)methyl)-1H-indol-6-amine hydrochloride]  480 nM
12. CNCc1cn(S(=O)(=O)c2cccc(Cl)c2)c2cc(Nc3ccc(C(F)(F)F)nc3Cl)ccc12 [Example 161, N-(2-chloro-6-(trifluoromethyl)pyridin-3-yl)-1-((3-chlorophenyl)sulfonyl)-3-((methylamino)methyl)-1H-indol-6-amine hydrochloride]  460 nM
13. CNCc1cn(S(=O)(=O)c2cccc(Cl)c2)c2cc(Nc3ccc(OC(F)(F)F)cc3F)ccc12 [Example 155, 1-((3-chlorophenyl)sulfonyl)-N-(2-fluoro-4-(trifluoromethoxy)phenyl)-3-((methylamino)methyl)-1H-indol-6-amine hydrochloride]  440 nM
14. CNCc1cn(S(=O)(=O)c2cccc(Cl)c2)c2cc(Nc3ccc(C)nc3F)ccc12 [Example 158, 1-((3-chlorophenyl)sulfonyl)-N-(2-fluoro-6-methylpyridin-3-yl)-3-((methylamino)methyl)-1H-indol-6-amine hydrochloride]  410 nM
15. CNCc1cn(S(=O)(=O)c2cccc(Cl)c2)c2cc(Nc3ccc(C)c(F)c3F)ccc12 [Example 156, 1-((3-chlorophenyl)sulfonyl)-N-(2,3-difluoro-4-methylphenyl)-3-((methylamino)methyl)-1H-indol-6-amine hydrochloride]  380 nM
16. CNCc1cn(S(=O)(=O)c2cccc(Cl)c2)c2cc(Nc3cccnc3OC)ccc12 [Example 157, 1-((3-chlorophenyl)sulfonyl)-N-(2-methoxypyridin-3-yl)-3-((methylamino)methyl)-1H-indol-6-amine hydrochloride]  380 nM
17. CNCc1cn(S(=O)(=O)c2cccc(Cl)c2)c2cc(Nc3ccc(C(F)(F)F)cc3Cl)ccc12 [Example 152, N-(2-chloro-4-(trifluoromethyl)phenyl)-1-((3-chlorophenyl)sulfonyl)-3-((methylamino)methyl)-1H-indol-6-amine hydrochloride]  350 nM
18. CNCc1cn(S(=O)(=O)c2cccc(Cl)c2)c2cc(Nc3ccc(Cl)nc3Cl)ccc12 [Example 159, 1-((3-chlorophenyl)sulfonyl)-N-(2,6-dichloropyridin-3-yl)-3-((methylamino)methyl)-1H-indol-6-amine hydrochloride]  340 nM
19. CNCc1cn(S(=O)(=O)c2cccc(OC)c2)c2cc(Nc3ccc(C(F)(F)F)cc3Cl)ccc12 [Example 166, N-(2-chloro-4-(trifluoromethyl)phenyl)-1-((3-methoxyphenyl)sulfonyl)-3-((methylamino)methyl)-1H-indol-6-amine hydrochloride]  340 nM
20. CNCc1cn(S(=O)(=O)c2cccc(OC)c2)c2cc(Nc3ccc(C)c(F)c3F)ccc12 [Example 170, N-(2,3-difluoro-4-methylphenyl)-1-((3-methoxyphenyl)sulfonyl)-3-((methylamino)methyl)-1H-indol-6-amine hydrochloride]  260 nM
21. CNCc1cn(S(=O)(=O)c2cccc(F)c2)c2cc(Nc3ccc(OC(F)(F)F)cc3C)ccc12 [Example 140, 1-((3-fluorophenyl)sulfonyl)-N-(2-methyl-4-(trifluoromethoxy)phenyl)-3-((methylamino)methyl)-1H-indol-6-amine hydrochloride]  190 nM
22. CNCc1cn(S(=O)(=O)c2cccc(Cl)c2)c2cc(Nc3ccc(C)cc3F)ccc12 [Example 146, 1-((3-chlorophenyl)sulfonyl)-N-(2-fluoro-4-methylphenyl)-3-((methylamino)methyl)-1H-indol-6-amine hydrochloride]  150 nM
23. CNCc1cn(S(=O)(=O)c2cccc(OC(F)F)c2)c2cc(Nc3ccc(C)cc3Cl)ccc12 [Example 175, N-(2-chloro-4-methylphenyl)-1-((3-(difluoromethoxy)phenyl)sulfonyl)-3-((methylamino)methyl)-1H-indol-6-amine hydrochloride]  150 nM
24. CNCc1cn(S(=O)(=O)c2cccc(OC)c2)c2cc(Nc3ccc(C)cc3Cl)ccc12 [Example 163, N-(2-chloro-4-methylphenyl)-1-((3-methoxyphenyl)sulfonyl)-3-((methylamino)methyl)-1H-indol-6-amine hydrochloride]  140 nM
25. CNCc1cn(S(=O)(=O)c2cccc(Cl)c2)c2cc(Nc3ccc(C)cc3Cl)ccc12 [Example 147, N-(2-chloro-4-methylphenyl)-1-((3-chlorophenyl)sulfonyl)-3-((methylamino)methyl)-1H-indol-6-amine hydrochloride]  90 nM
26. CNCc1cn(S(=O)(=O)c2cccc(OC)c2)c2cc(Nc3ccc(Cl)cc3C(F)(F)F)ccc12 [Example 165, N-(4-chloro-2-(trifluoromethyl)phenyl)-1-((3-methoxyphenyl)sulfonyl)-3-((methylamino)methyl)-1H-indol-6-amine hydrochloride]  80 nM
27. CNCc1cn(S(=O)(=O)c2cccc(OC)c2)c2cc(Nc3ccc(OC(F)(F)F)cc3Cl)ccc12 [Example 169, N-(2-chloro-4-(trifluoromethoxy)phenyl)-1-((3-methoxyphenyl)sulfonyl)-3-((methylamino)methyl)-1H-indol-6-amine hydrochloride]  80 nM
28. CNCc1cn(S(=O)(=O)c2cccc(F)c2)c2cc(Nc3ccc(C)cc3Cl)ccc12 [Example 137, N-(2-chloro-4-methylphenyl)-1-((3-fluorophenyl)sulfonyl)-3-((methylamino)methyl)-1H-indol-6-amine hydrochloride]  60 nM
29. CNCc1cn(S(=O)(=O)c2cccc(OC)c2)c2cc(Nc3ccc(C)cc3F)ccc12 [Example 162, N-(2-fluoro-4-methylphenyl)-1-((3-methoxyphenyl)sulfonyl)-3-((methylamino)methyl)-1H-indol-6-amine hydrochloride]  20 nM
30. CNCc1cn(S(=O)(=O)c2cccc(OC(F)F)c2)c2cc(Nc3ccc(C)cc3F)ccc12 [Example 174, 1-((3-(difluoromethoxy)phenyl)sulfonyl)-N-(2-fluoro-4-methylphenyl)-3-((methylamino)methyl)-1H-indol-6-amine hydrochloride]  20 nM
31. CNCc1cn(S(=O)(=O)c2cccc(Cl)c2)c2cc(Nc3ccc(F)cc3Cl)ccc12 [Example 149, N-(2-chloro-4-fluorophenyl)-1-((3-chlorophenyl)sulfonyl)-3-((methylamino)methyl)-1H-indol-6-amine hydrochloride]  10 nM
